Measurements reported in patent US11185527B2, “Methods and compositions relating to steroid hormone receptor-dependent cancers” (Wayne State University, priority 2017, dated 2021).

Columns and labels:
[1] = tested on: ELK1-dependent promoter activation by AR; experiment: Primary screening assay: luciferase reporter in recombinant HeLa cells (Gal4-TATA-Luc, Gal4-ELK1, AR) treated with testosterone; assay type: cell-based, human
From the text: FIG. 6A is a schematic diagram of the reporter system for the primary screening assay. Recombinant HeLa cells used in this assay harbor the Gal4-TATA-Luc promoter-reporter, and stably express a Gal4-ELK1 fusion protein as well as the androgen receptor (AR). Gal4-ELK1 is bound to the Gal4 elements in the promoter. In the absence of testosterone (small circle), AR is localized in the cytoplasm. When testosterone is present it binds to AR causing AR to translocate to the nucleus where it then binds to Gal4-ELK1 and activates the downstream luciferase reporter.
HeLa HLR cells obtained from Dr. Johann Hofman (Innsbruck Medical University), which were originally designed to serve as a cell-based assay system to measure modulation of MAPK activity. HeLa HLR cells have a stably integrated minimal promoter-luciferase reporter containing five upstream Gal4 elements (Gal4-TATA-Luc) and also constitutively express a Gal4-ELK1 fusion protein in which the Gal4 DNA binding domain is substituted for the ETS DNA binding domain of ELK1. In order to produce recombinant cell lines for high throughput screening and counter screening of small molecule libraries, HeLa HLR were stably transduced with a vector expressing the full-length AR. A sequence encoding the full length AR (SEQ ID NO:9) was subcloned from the pCMV expression vector (Origene) into the pCDH-CMV-MCS-EF1-Puro cDNA Cloning and Expression Vector (System Biosciences) at NheI (upstream) and BamHI (downstream) sites. The lentiviral vector expressing full length AR was then packaged in lentivirus and the HeLa HLR cells were infected as described below in the sub-section “Lentivirus-mediated-Transduction.” After 72 hours (h) of infection, 2 ug/mL of puromycin was added to the culture medium to select for the transduced cells. The cells were plated at low density for colony formation (20-40 colonies) in a 100 mm dish. Clonal cells were isolated using cloning cylinders from CORNING (Cat. #3166-8). The selected clones were further expanded and then tested for luciferase induction by testosterone. The clone that gave the greatest luciferase signal to noise ratio in response to testosterone treatment was then chosen for use in the primary screening assay for high throughput small molecule screening.
For high throughput screening, recombinant primary screening cells were first depleted of hormone by growing them for 24h in medium in which the serum used was heat-inactivated and charcoal-stripped. The cells were then plated in 384-well white flat bottom plates (5,000 cells/well) (Corning Product #3570) using a Multidrop (Thermo Fisher Scientific, Waltham, Mass.). The plates were then incubated for 24h prior to adding test compounds. The following day test compounds from the LOPAC, Prestwick, or Maybridge Hitfinder libraries were added precisely in a 0.2 μL volume in the test wells using a Biomek FX liquid handler (Beckman Coutler, Break, Calif.) to achieve final media concentration of 10 μM of each test compound. Using the Multidrop (ThermoLab Systems, Helsinki, Finland), testosterone was added in addition to the test compounds to achieve a final media concentration of 10 nM. As the test compounds were re-constituted from powder stocks using dimethyl sulfoxide (DMSO) as the solvent, the final media concentration of DMSO was 0.4% v/v. For the assay negative control on each plate, one row of wells on each plate contained 10 nM testosterone and 0.4% v/v of DMSO. For the assay positive control on each plate, one row of wells on each plate contained 10 nM testosterone and 10 uM enzalutamide dissolved in DMSO (0.4% v/v of DMSO in the wells). The plates were incubated for 24h at 37° C. in 5% CO2. The medium was then aspirated leaving a residual volume 10 μl using an Elx 405-plate washer (Bio Tek U.S.). Then, 10 uL of the assay reagent Bright-Glo (Promega Corp., Madison Wis.) was added to each well. […]

C4-2 cells = experiment: Cell growth assay; assay type: cell-based
From the text: FIG. 16C is a graph showing the effect of 5′-Fluoro-5,3′-Dihydroxyflavone at various concentrations on growth of C4-2 cells.

[2] = tested on: PDX-PR011 tumor xenograft; experiment: PDX-PR011 patient-derived CRPC tumor xenograft in male SCID mice, tumor growth; assay type: in vivo, mouse; conditions: treatment from Day 1; KCI807 IP as for 22Rv1; enzalutamide oral 50 mg/Kg daily
Procedure: FIG. 5B is a graph showing results obtained when PDX-PR011 tumor xenografts were implanted sc into male SCID mice in both flanks. The vehicle control and KCI807 were administered as described for FIG. 5A with the exception that treatment was begun on Day 1 after tumor implantation. Tumor volumes were monitored as described herein.
FIG. 14 is a graph showing results obtained when PDX-PR011 tumor xenografts were implanted sc into male SCID mice in both flanks. […] Treatment was begun on Day 1 after tumor implantation.

[3] = tested on: AR target genes in 22Rv1 CRPC cells; experiment: Real time RT-PCR of AR target gene mRNAs in 22Rv1 cells; assay type: cell-based, human; conditions: 22Rv1, 10 μM, 72h
Procedure: FIG. 3D is a graph showing that in 22Rv1 cells were treated with 10 μM of KCI807 for 72h and real time RT-PCR was used to measure mRNAs for the indicated panel of genes tested in FIG. 3B and FIG. 3C.
Total RNA was isolated from cells using the RNeasy Mini Kit (Qiagen). Reverse transcription PCR was then performed using 500 ng of total RNA with random primers and using the high-capacity complementary DNA Archive kit (Applied Biosystems). The complementary DNA from this reaction was measured using quantitative real time PCR using the StepONE Plus Real Time PCR system (Life Technologies Corporation, Carlsbad, Calif.). All reactions were performed in triplicate and normalized to glyceraldehyde-3-phosphate-dehydrogenase values in the same samples. All primers and Taqman probes were purchased from the applied Biosystems inventory (Invitrogen)
To test the selectivity of KCI807 for ELK1-dependent gene activation by AR vs. other target genes of the receptor, 22Rv1 CRPC cells, which are dependent on both full length AR and AR-V7 for hormone-independent growth, were used. […]

Compound | selectivity for ELK1-dependent versus ARE-dependent promoter activity ([1]; primary versus counter screening assay) | growth inhibition of C4-2 cells (C4-2 cells) | inhibition of ELK1-dependent promoter activation by AR (in words) ([1]; testosterone-treated recombinant HeLa cells, luciferase) | tumor growth inhibition, PDX-PR011 xenograft [2] | effect on mRNA of AR target genes [3]
O=c1cc(-c2cc(O)cc(F)c2)oc2cccc(O)c12 [5′-fluoro-5,3′-dihydroxyflavone] | more selective for the ELK1-dependent promoter activity than ARE-dependent activity | inhibited growth | – | – | –
CNC(=O)c1ccc(N2C(=S)N(c3ccc(C#N)c(C(F)(F)F)c3)C(=O)C2(C)C)cc1F [enzalutamide] | – | – | completely suppressed the signal | not inhibited | –
O=c1cc(-c2cccc(O)c2)oc2cccc(O)c12 [KCI807, 5,3′-dihydroxyflavone] | – | – | – | significantly inhibited | decreased expression of only the genes known to be supported synergistically by ELK1 and AR
